Measurements taken from patent US20100055093A1, “PAN-CELL SURFACE RECEPTOR-SPECIFIC THERAPEUTICS” (RECEPTOR BIOLOGIX INC., priority 2006, published 2010).
Entries after “also recorded” stand apart in the source; their conditions may differ. Marks after values point to notes of the source that are not given here.

Key:
A431 s.c. tumor = experiment: Therapeutic evaluation in A431 s.c. human tumor xenograft model; type: in vivo, nude mice
Description: Mice were obtained from the commercial suppliers (Harlan, UK). The mice were 4-6 weeks old at the start of the study. […] The room was air-conditioned by a system designed to maintain an air temperature range of 23±2° C. Mice were housed in groups of 2 or 5 during the procedure in plastic cages (Techniplast UK) with irradiated bedding and provided with both nesting materials and environmental enrichment. […] Tumor dimensions were recorded (calliper measurement of length and width and tumor cross-sectional area and volume calculated) three times weekly and body weight measured weekly. Each mouse remained in the study until terminated, or until necessitate removal of that mouse from the study. Animals were terminated if the tumor size becomes excessive or any adverse effects are noted. At termination the mice were anaesthetized (Hypnorm/Hynovel) and 1 ml blood removed by cardiac puncture, processed for plasma, frozen for both the pilot and therapeutic study. The mice were then terminated by an approved S1 method. For the therapeutic study, the tumors were excised, weighed, measured and fixed in formalin. Body weight data, tumor growth and final tumor weight were recorded and reported in spreadsheet and graphical format. Statistical analysis was performed if appropriate using Minitab. […] An extra group for the therapeutic study was added by PRECOS as below. Group 9: 30 mg/kg human IgG i.p. 3 times weekly. Iressa was prepared by PRECOS in 10% DMSO & 5% Cremaphor in PBS. Tumors were initiated with 2×10^6 cells per mouse for the therapeutic study.

A431 tumor bearing mice = experiment: Pilot toxicity study in A431 tumor bearing mice; type: in vivo, nude mice
Description: Mice were obtained from the commercial suppliers (Harlan, UK). The mice were 4-6 weeks old at the start of the study. […] The room was air-conditioned by a system designed to maintain an air temperature range of 23±2° C. Mice were housed in groups of 2 or 5 during the procedure in plastic cages (Techniplast UK) with irradiated bedding and provided with both nesting materials and environmental enrichment.
Cells were injected subcutaneously into mice at 1×10^7 cells in a volume of 100 μl.
For the pilot toxicity study, mice were allocated to their treatment groups and treatment began on day 5 for 2 weeks in a dosing volume of 150 μl per injection. […] Tumor dimensions were recorded (calliper measurement of length and width and tumor cross-sectional area and volume calculated) three times weekly and body weight measured weekly.
Each mouse remained in the study until terminated, or until necessitate removal of that mouse from the study. Animals were terminated if the tumor size becomes excessive or any adverse effects are noted. At termination the mice were anaesthetized (Hypnorm/Hynovel) and ˜1 ml blood removed by cardiac puncture, processed for plasma, frozen for both the pilot and therapeutic study. The mice were then terminated by an approved S1 method.
Pilot toxicity study was terminated after 12 days of dosing in order to collect plasma samples 3 hours after dosing. […]

heregulin (HRG) = experiment: 125I-HRG binding with BS3 cross-linking and SDS-PAGE; conditions: for binding of 125I-HRG: 5 nM 125I-HRG, BS3 cross-linking, SDS-PAGE
Description: 1 mM of the BS3 crosslinker was added at the end of the binding assay to cross-link the bound molecules. Binding reactions were separated on an SDS-PAGE gel.
(§1) Western blots were probed with anti-His antibody to compare protein levels.

HER3 = biological target: T1, HER3 (Homo sapiens, UniProt P21860); experiment: ELISA-based HER receptor phosphorylation assay, HER3; type: cell-based; conditions: HRG; for maximal inhibition of HER3 phosphorylation: 600 nM protein; for IC50: read-out: IC50, inhibition of HER3 phosphorylation
T1 construct: endogenous in cells
Description: (§2) Phosphorylation of HER receptors was assessed in an ELISA-based HER Receptor phosphorylation assay. Various cells (A431, MCF7, SK-BR3, SK-OV3, MCF7/HER2) were serum-starved in serum free medium for about 24 hr.
(§3) Cells were lysed on ice for 15 min and cell lysate were applied to a 96-well plate pre-coated with the respective receptor-specific capture antibodies (antibodies were purchased from R & D System) by manufacture recommended concentrations (0.4 to 4 ug/ml) and condition (in PBS, room temperature, overnight). Cell lysates were incubated with the capture Ab plate for 3 hrs at room temperature. Plates were washed 3× with PBST buffer. Anti-phosphotyrosine antibody clone 4G10 HRP-conjugated (Upstate) were diluted at 1:1000 in 1% of BSA.PBS and added to the plates, 100 μl/well for 1 hr to detect specifically HER receptors phosphorylated on tyrosine. After 3× PBST wash, the plates were developed by adding 100 μl of substrate solution (TMB, Sigma) and stopped by 50 μl of SDS stop solution. The optical density was determined by microplate reader at 650 nm (Molecular Devices, VERSAmax).

HER2 = biological target: T2, HER2 (Homo sapiens, UniProt P04626); experiment: ELISA-based HER receptor phosphorylation assay, HER2; type: cell-based; conditions: MCF7/HER2 cells, HRG, 600 nM protein
T2 construct: endogenous in cells
Description: as §2, §3

MCF7 cells = experiment: Ligand-stimulated cell proliferation, Alamar Blue; type: cell-based; conditions: MCF7 stimulated by HRGβ, at 1 μm
Description: Cell lines MCF7, ZR75-1, ME180 were purchased from ATCC and kept in 10% of FBS DMEM. Cells were seeded at 2000 per well in 96-well plate in 1% FBS supplemented DMEM. After 2-3 hr of seeding, increasing concentrations of candidate HER ECD derivatives were added to the culture in the present of ligands (EGF or HRGβ). Cells were incubated at 37° C. for about 72 hr. Cells relative density were measured by Alamar Blue method. Alamar Blue (Sigma) was prepared in PBS at concentration of 4 uM, added to the microplate at 1/10 volume of culture medium (final concentration 0.4 uM) and plates returned to the incubator. Fluorescence was read at Ex.=530 nm/Em.=590 nm after 2-4 hours at 37° C.

EGF = EGF (Homo sapiens, UniProt P01133); experiment: 125I-EGF binding with BS3 cross-linking and SDS-PAGE; conditions: supernatant of transfected 293T cells, 5 nM 125I-EGF, BS3 cross-linking, SDS-PAGE
Description: BS^3, a chemical crosslinker (Pierce) was added at the end of the binding assay to cross-link the bound molecules. Samples were separated on an SDS-PAGE gel and exposed to a film for detection.
as §1

[1] = biological target: T3, neuregulin-1 beta 1 (NRG1β1) (human, UniProt Q02297-6 177-241, limits assumed); experiment: 125I-HRG (5 nM) cross-linking (BS3), normalised by anti-HER3 Western blot densitometry
T3 construct: also called HRG; heregulin
T3 sequence (looked up): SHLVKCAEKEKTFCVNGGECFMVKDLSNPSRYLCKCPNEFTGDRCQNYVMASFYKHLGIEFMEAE
Description: 1 mM of the BS₃ crosslinker was added at the end of the binding assay to cross-link the bound molecules. Binding reactions were separated on an SDS-PAGE gel. The protein gel was dried and exposed to a film for 2 and 6 hours.

[2] = biological target: the molecule itself; experiment: self-association by size exclusion chromatography (apparent over calculated molecular weight)
Description: This methodology permits simplified analysis of the ability of receptor ectodomains to associate as either homodimers or heterodimers. To perform molecular size exlusion analysis, eluted molecules were compared to reference standards. […] Smaller volumes elute in the retained volume of the column, while larger molecules elute in smaller volumes according to their increasing molecular mass.
Molecular size exclusion analysis was performed using a A TSK3000 size exclusion column (Tosoh Bioscience, Montgomeryville, Pa.) equilibrated with PBS at a flow rate of 0.7 ml/min. Gel filtration standards (BioRad, Hercules, Calif.) were used to calibrate the column. Their elution volumes and molecular weights were plotted. Elution volumes were determined for each unknown by injection of 30 μg of each molecule in PBS and their apparent molecular weights calculated. Flow was maintained over the column between injections. Molecular weights were determined using a Standard curve for molecular weight standards.

[3] = Group 5, 38 mg/kg Iressa, group mean
[4] = Group 6, 75 mg/kg Iressa, group mean

Chain of EGF (P01133 971-1023 limits assumed): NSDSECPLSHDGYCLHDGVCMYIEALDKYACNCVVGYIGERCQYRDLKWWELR

Molecule: COc1cc2ncnc(Nc3ccc(F)c(Cl)c3)c2cc1OCCCN1CCOCC1 [Iressa, Gefitinib]
- tumor growth rate in comparison to the vehicle group (A431 s.c. tumor; 38 mg/kg Iressa (Group 5)): did not
- reduction of final tumor weight (A431 s.c. tumor; 75 mg/kg Iressa (Group 6)): 69%
- tumor growth rate in comparison to the vehicle group (A431 s.c. tumor; 75 mg/kg Iressa i.p. days 1-5 cycled weekly (Group 6)): significantly decreased
- Tumor volume (mm^3) Day 7 (A431 s.c. tumor; [3]): 51.2 mm^3
- Tumor volume (mm^3) Day 10 (A431 s.c. tumor; [3]): 79.4 mm^3
- Tumor volume (mm^3) Day 12 (A431 s.c. tumor; [3]): 108.8 mm^3
- Tumor volume (mm^3) Day 14 (A431 s.c. tumor; [3]): 152.6 mm^3
- Tumor volume (mm^3) Day 17 (A431 s.c. tumor; [3]): 220.6 mm^3
- Tumor volume (mm^3) Day 19 (A431 s.c. tumor; [3]): 259.6 mm^3
- Tumor volume (mm^3) Day 21 (A431 s.c. tumor; [3]): 396.9 mm^3
- Tumor volume (mm^3) Day 24 (A431 s.c. tumor; [3]): 477.0 mm^3
- Tumor volume (mm^3) Day 25 (A431 s.c. tumor; [3]): 491.1 mm^3
- Tumor volume (mm^3) Day 26 (A431 s.c. tumor; [3]): 510.1 mm^3
- Tumor weight (A431 s.c. tumor; Group 5, 38 mg/kg Iressa, final tumor weight, group mean): 0.267 g
- Tumor volume (mm^3) Day 7 (A431 s.c. tumor; [4]): 48.6 mm^3
- Tumor volume (mm^3) Day 10 (A431 s.c. tumor; [4]): 72.5 mm^3
- Tumor volume (mm^3) Day 12 (A431 s.c. tumor; [4]): 87.1 mm^3
- Tumor volume (mm^3) Day 14 (A431 s.c. tumor; [4]): 104.3 mm^3
- Tumor volume (mm^3) Day 17 (A431 s.c. tumor; [4]): 123.1 mm^3
- Tumor volume (mm^3) Day 19 (A431 s.c. tumor; [4]): 112.1# mm^3
- Tumor volume (mm^3) Day 21 (A431 s.c. tumor; [4]): 150.1# mm^3
- Tumor volume (mm^3) Day 24 (A431 s.c. tumor; [4]): 180.5# mm^3
- Tumor volume (mm^3) Day 25 (A431 s.c. tumor; [4]): 178.6# mm^3
- Tumor volume (mm^3) Day 26 (A431 s.c. tumor; [4]): 181.9# mm^3
- Tumor weight (g) (A431 s.c. tumor; Group 6, 75 mg/kg Iressa, final tumor weight, group mean): 0.095# g
- tumor size prior to termination (A431 tumor bearing mice; Iressa treatment groups (groups 2 and 3)): inhibition of tumor size
- adverse effects (A431 tumor bearing mice; i.p., 30 mg/kg RB200h, 75 mg/kg IRESSA, or 10 mg/kg RB200h with 38 mg/kg IRESSA, 12 days of dosing): No adverse effects

Molecule: HF300T: full-length HER3 ECD, residues 1-621, SEQ ID NO:26
- binding of HRG as compared to the other derivatives tested (heregulin (HRG); normalized by anti-HER3 Western blot densitometry): about 10%
- maximal inhibition of HER3 phosphorylation (HER3; MCF7 cells): about 38%
- IC50 (HER3; MCF7 cells): 48 nM
- maximal inhibition of HER3 phosphorylation (HER3; SK-BR3 cells): about 55%

Molecule: HFD310: truncated HER3 ECD (1-500) fused to Fc, SEQ ID NO:44
- binding of 125I-HRG (heregulin (HRG)): equivalent binding

Molecule: HF220T: truncated HER2 ECD, residues 1-508, SEQ ID NO:14
- maximal inhibition of HER2 phosphorylation (HER2): about 35%
- maximal inhibition of HER3 phosphorylation (HER3; MCF7/HER2 cells): about 35%

Molecule: HF210T: truncated HER2 ECD, residues 1-573, SEQ ID NO:16
- maximal inhibition of HER2 phosphorylation (HER2): about 55%
- maximal inhibition of HER3 phosphorylation (HER3; MCF7/HER2 cells): about 55%

Molecule: HF310T: truncated HER3 ECD, residues 1-500, SEQ ID NO:20
- binding of 125I-HRG (heregulin (HRG)): equivalent binding
- maximal inhibition of HER3 phosphorylation (HER3; MCF7 cells): about 78%
- IC50 (HER3; MCF7 cells): 39 nM
- maximal inhibition of HER3 phosphorylation (HER3; SK-BR3 cells): about 75%
- inhibition of proliferation (MCF7 cells): about 95%

Molecule: HFD200: full-length HER2 ECD fused to Fc, SEQ ID NO:42
- binding of 125I-EGF (EGF): did not show any detectable
- binding of 125I-EGF (EGF; listed as HER2-650/Fc): no binding
- binding of 125I-HRG (heregulin (HRG)): did not show any detectable

Molecule: HFD300: full-length HER3 ECD (1-621) fused to Fc, SEQ ID NO:46; homodimer
- binding of 125I-HRG (heregulin (HRG)): equivalent binding; also recorded: bound
- binding of 125I-HRG (heregulin (HRG); listed as HER3-621/Fc): binds

Molecule: HFD400: full-length HER4 ECD fused to Fc, SEQ ID NO:48
- binding of 125I-EGF (EGF): no binding
- binding of 125I-HRG (heregulin (HRG)): bound
- binding of 125I-HRG (heregulin (HRG); listed as HER4-650/Fc): binds

B1: HER3-621, full-length HER3 ECD (receptor)
chain: SEVGNSQAVCPGTLNGLSVTGDAENQYQTLYKLYERCEVVMGNLEIVLTGHNADLSFLQWIREVTGYVLVAMNEFSTLPLPNLRVVRGTQVYDGKFAIFVMLNYNTNSSHALRQLRLTQLTEILSGGVYIEKNDKLCHMDTIDWRDIVRDRDAEIVVKDNGRSCPPCHEVCKGRCWGPGSEDCQTLTKTICAPQCNGHCFGPNPNQCCHDECAGGCSGPQDTDCFACRHFNDSGACVPRCPQPLVYNKLTFQLEPNPHTKYQYGGVCVASCPHNFVVDQTSCVRACPPDKMEVDKNGLKMCEPCGGLCPKACEGTGSGSRFQTVDSSNIDGFVNCTKILGNLDFLITGLNGDPWHKIPALDPEKLNVFRTVREITGYLNIQSWPPHMHNFSVFSNLTTIGGRSLYNRGFSLLIMKNLNVTSLGFRSLKEISAGRIYISANRQLCYHHSLNWTKVLRGPTEERLDIKHNRPRRDCVAEGKVCDPLCSSGGCWGPGPGQCLSCRNYSRGGVCVTHCNFLNGEPREFAHEAECFSCHPECQPMGGTATCNGSGSDTCAQCAHFRDGPHCVSSCPHGVLGAKGPIYKYPDVQNECRPCHENCTQGCKGPELQDCLGQTLVLIGKTLESRGPFEQKLISEEDLNMHTGHHHHHH
notes: also called HF300; HF300T
- binding relative to the other derivatives tested [1]: ~10%
- M. Wt. (ap):M. Wt. [2]: 2.66

B2: HF410T (HER4-485) (receptor)
chain: QSVCAGTENKLSSLSDLEQQYRALRKYYENCEVVMGNLEITSIEHNRDLSFLRSVREVTGYVLVALNQFRYLPLENLRIIRGTKLYEDRYALAIFLNYRKDGNFGLQELGLKNLTEILNGGVYVDQNKFLCYADTIHWQDIVRNPWPSNLTLVSTNGSSGCGRCHKSCTGRCWGPTENHCQTLTRTVCAEQCDGRCYGPYVSDCCHRECAGGCSGPKDTDCFACMNFNDSGACVTQCPQTFVYNPTTFQLEHNFNAKYTYGAFCVKKCPHNFVVDSSSCVRACPSSKMEVEENGIKMCKPCTDICPKACDGIGTGSLMSAQTVDSSNIDKFINCTKINGNLIFLVTGIHGDPYNAIEAIDPEKLNVFRTVREITGFLNIQSWPPNMTDFSVFSNLVTIGGRVLYSGLSLLILKQQGITSLQFQSLKEISAGNIYITDNSNLCYYHTINWTTLFSTINQRILESRGPFEQKLISEEDLNMHTGHHHHHH
- M. Wt. (ap):M. Wt. [2]: 1.98
